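Where inhibition never reached the appropriate level, the endpoint shown equals the highest concentration tested. Otherwise, values were interpolated linearly from a five-concentration, 48-hour dose response in 96-well plates. Here, GI50 denotes the concentration required for 50% inhibition of growth. The concentration for full growth arrest is given as TGI.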

Among the test systems are SF-268 CNS; SF-295 CNS; SK-MEL-2 melanoma; MALME-3M melanoma; HOP-92 NSCLC; OVCAR-4 ovarian; HS 578T breast; MOLT-4 leukemia; LOX IMVI melanoma; TK-10 renal.
Experiment in all cases: NCI tumour cell line growth inhibition, 48 h

Consider `NCCNc1nc2ccc(F)cc2c2c(=O)c3cc(F)ccc3sc12`, for which the GI50 was 1.62 µM in the assay with SF-268 CNS; 1.88 µM in the assay with SF-295 CNS; 1.95 µM in the assay with SK-MEL-2 melanoma; 1.91 µM in the assay with MALME-3M melanoma; 1.02 µM with HOP-92 NSCLC; 2.6 µM in the assay with OVCAR-4 ovarian. Besides, the GI50 was 3.21 µM in the assay with HS 578T breast, 1.94 µM in the assay with MOLT-4 leukemia, 1.72 µM in the assay with LOX IMVI melanoma and 2.07 µM with TK-10 renal. For the same molecule, the TGI came out at 4.47 µM in the assay on SF-268 CNS; 3.59 µM with SF-295 CNS; 4.28 µM in the assay with SK-MEL-2 melanoma; 4.28 µM with MALME-3M melanoma; 4.6 µM in the assay on HOP-92 NSCLC; 8.01 µM in the assay with OVCAR-4 ovarian. Besides, the TGI in the assay with HS 578T breast is 18.4 µM; with MOLT-4 leukemia, 3.92 µM; in the assay on LOX IMVI melanoma, 3.13 µM; with TK-10 renal, 3.57 µM.

Regarding `Cn1c(=S)c2[nH]c(SCc3cccnc3)nc2n(C)c1=O`, the TGI in the assay on SF-268 CNS, in the assay on SF-295 CNS, with SK-MEL-2 melanoma, in the assay with MALME-3M melanoma, in the assay with HOP-92 NSCLC and in the assay with OVCAR-4 ovarian was above 100 µM in each case. Further, the TGI in the assay on HS 578T breast, in the assay on MOLT-4 leukemia, in the assay on LOX IMVI melanoma and in the assay with TK-10 renal was above 100 µM each time.

Turning to `COc1ccc(/C=N/C2=NNC(C)(c3ccccc3O)N2C(Cc2c[nH]c3ccccc23)C(=O)O)cc1` (stereo unspecified), the GI50 with SF-268 CNS was 3.11 µM; in the assay on SF-295 CNS, 2.12 µM; in the assay on SK-MEL-2 melanoma it was 2.27 µM; in the assay with MALME-3M melanoma it was 1.9 µM; in the assay on HOP-92 NSCLC, 1.31 µM; in the assay with OVCAR-4 ovarian it was 2.26 µM. Also, the GI50 in the assay on HS 578T breast is 2.83 µM; in the assay with MOLT-4 leukemia it was 3 µM; with LOX IMVI melanoma, 2.68 µM; in the assay with TK-10 renal, 5.01 µM. Moreover, the TGI in the assay with SF-268 CNS came out at 13.8 µM; in the assay on SF-295 CNS it was 7.35 µM; in the assay with SK-MEL-2 melanoma, 5.81 µM; in the assay with MALME-3M melanoma, 6.49 µM; in the assay with HOP-92 NSCLC, 5.17 µM; with OVCAR-4 ovarian it was 15.1 µM. For the same molecule, the TGI with HS 578T breast turned out to be 21.7 µM; in the assay with MOLT-4 leukemia, 13.9 µM; in the assay with LOX IMVI melanoma, 10.1 µM; in the assay on TK-10 renal, 10.9 µM.

For the molecule `C=C(C)C1Cc2cc(C(C)=O)ccc2O1` (stereo unspecified), the TGI in the assay on SF-268 CNS, with SF-295 CNS, with SK-MEL-2 melanoma, in the assay on MALME-3M melanoma, with HOP-92 NSCLC and in the assay on OVCAR-4 ovarian was above 100 µM throughout. Moreover, the TGI with HS 578T breast, in the assay with MOLT-4 leukemia, in the assay on LOX IMVI melanoma and in the assay with TK-10 renal was above 100 µM throughout.

Consider `Nc1n[nH]c2cc(F)c([C@@H]3Nc4c(F)cc5[nH]ncc5c4[C@H]4C5CCC(C5)[C@@H]34)cc12` (stereo partly specified), for which the GI50 with SF-268 CNS is 0.306 µM; with SF-295 CNS, 0.0971 µM; with SK-MEL-2 melanoma it was 0.817 µM; with MALME-3M melanoma it was 0.948 µM; in the assay on HOP-92 NSCLC, 0.36 µM; in the assay with OVCAR-4 ovarian, 0.566 µM. Also, the GI50 in the assay with HS 578T breast is 0.117 µM; in the assay with MOLT-4 leukemia it was 0.145 µM; with LOX IMVI melanoma, 0.144 µM; with TK-10 renal, 2.27 µM. The TGI was determined as 4.49 µM in the assay with SF-268 CNS; 3.82 µM in the assay on SF-295 CNS; 9.37 µM in the assay with SK-MEL-2 melanoma; 14.3 µM in the assay on MALME-3M melanoma; 4.1 µM with HOP-92 NSCLC; 33.3 µM in the assay on OVCAR-4 ovarian. In addition, the TGI was found to be 2.95 µM in the assay with HS 578T breast, 14.1 µM with MOLT-4 leukemia, 4.41 µM with LOX IMVI melanoma and 27.2 µM in the assay with TK-10 renal.

For `COc1ccc(C(=O)c2cc(C)c(OC)c(C)c2)c(OC)c1OC(=O)C(Cl)Cl`, the GI50 in the assay with SF-268 CNS is 0.198 µM; in the assay on SF-295 CNS it was 0.164 µM; with SK-MEL-2 melanoma, 0.132 µM; in the assay with MALME-3M melanoma, 0.0714 µM; with HOP-92 NSCLC, 0.216 µM; with OVCAR-4 ovarian it was 0.422 µM. The GI50 was 0.0294 µM in the assay on HS 578T breast, 0.0436 µM in the assay on MOLT-4 leukemia, 0.0455 µM in the assay on LOX IMVI melanoma and 17.2 µM with TK-10 renal. Besides, the TGI with SF-268 CNS is above 100 µM; in the assay with SF-295 CNS, above 25.1 µM; with SK-MEL-2 melanoma it was above 100 µM; with MALME-3M melanoma it was above 100 µM; in the assay with HOP-92 NSCLC, above 92.9 µM; in the assay with OVCAR-4 ovarian, above 100 µM. For the same molecule, the TGI is 73.4 µM in the assay on HS 578T breast, above 100 µM in the assay with MOLT-4 leukemia, above 100 µM with LOX IMVI melanoma and above 100 µM in the assay with TK-10 renal.

Consider `CN1CCC(n2cnc(-c3ccc(F)cc3)c2-c2ccnc(Nc3ccccc3)n2)CC1`, for which the GI50 is 9.91 µM in the assay on SF-268 CNS; above 19.2 µM in the assay with SF-295 CNS; 11.3 µM with SK-MEL-2 melanoma; 4.77 µM with MALME-3M melanoma; 5.18 µM in the assay with HOP-92 NSCLC; 8.12 µM in the assay on OVCAR-4 ovarian. Also, the GI50 in the assay with HS 578T breast is 11.5 µM; with MOLT-4 leukemia, 12 µM; with LOX IMVI melanoma it was 5.78 µM; in the assay with TK-10 renal, 2.34 µM. In addition, the TGI in the assay on SF-268 CNS is above 25 µM; in the assay on SF-295 CNS, above 25 µM; with SK-MEL-2 melanoma, above 25 µM; in the assay with MALME-3M melanoma, 12.4 µM; in the assay with HOP-92 NSCLC, 24.6 µM; with OVCAR-4 ovarian, above 25 µM. For the same molecule, the TGI in the assay with HS 578T breast, in the assay on MOLT-4 leukemia, in the assay on LOX IMVI melanoma and with TK-10 renal was above 25 µM throughout.

`N#CC1=C(N)Oc2c(ccc3cccnc23)C1c1ccccc1` (stereo unspecified): the TGI is above 100 µM with SF-268 CNS; above 21.9 µM in the assay on SF-295 CNS; above 27 µM in the assay with SK-MEL-2 melanoma; above 67.5 µM with MALME-3M melanoma; above 83.4 µM with HOP-92 NSCLC; 98.9 µM in the assay with OVCAR-4 ovarian. Moreover, the TGI was above 100 µM in the assay with HS 578T breast, 36.9 µM with MOLT-4 leukemia, above 100 µM in the assay on LOX IMVI melanoma and 86.8 µM in the assay on TK-10 renal. The GI50 in the assay with HS 578T breast was 1.73 µM.

These data come from PubChem BioAssay (NCI).
